Test results published in patent publication US10730863B2, “Bridged bicyclic compounds as farnesoid X receptor modulators” (BRISTOL-MYERS SQUIBB COMPANY, priority 2017, dated 2020).

Molecular target: FXR (Homo sapiens (Human), UniProt Q96RI1)
Test: FXR EC50 (FXR agonist activity reported with each example)
Type: cell-based

Sequence of FXR (Q96RI1 262-486): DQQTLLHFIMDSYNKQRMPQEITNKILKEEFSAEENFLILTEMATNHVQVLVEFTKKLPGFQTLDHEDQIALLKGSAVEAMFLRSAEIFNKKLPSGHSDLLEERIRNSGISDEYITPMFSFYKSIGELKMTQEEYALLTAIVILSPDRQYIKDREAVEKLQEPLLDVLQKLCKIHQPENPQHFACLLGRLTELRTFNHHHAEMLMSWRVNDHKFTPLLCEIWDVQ

| Structure (SMILES) | EC50 |
| --- | --- |
| O=C(O)c1cc(C23CCC(COCc4c(-c5ccccc5OC(F)(F)F)noc4C4CC4)(CC2)CO3)ccc1F [Example 207] | 570 nM |
| NC(=O)c1ccc(C23CCC(CNc4c(-c5c(Cl)cccc5Cl)noc4C4CC4)(CC2)CO3)cc1 [Example 208, 4-(4-(((5-cyclopropyl-3-(2,6-dichlorophenyl)isoxazol-4-yl)amino)methyl)-2-oxabicyclo[2.2.2]octan-1-yl)benzamide] | 710 nM |
| O=C(O)c1ccc(-c2noc(C34CCC(COCc5c(-c6ccccc6OC(F)(F)F)noc5C5CC5)(CC3)CO4)n2)cc1 [Example 209, 4-(5-(4-(((5-cyclopropyl-3-(2-(trifluoromethoxy)phenyl)isoxazol-4-yl)methoxy)methyl)-2-oxabicyclo[2.2.2]octan-1-yl)-1,2,4-oxadiazol-3-yl)benzoic acid] | 470 nM |
| O=C(O)c1cccc(-c2noc(C34CCC(COCc5c(-c6c(Cl)cccc6Cl)noc5C5CC5)(CC3)CO4)n2)c1 [Example 210, 3-(5-(4-(((5-cyclopropyl-3-(2,6-dichlorophenyl)isoxazol-4-yl)methoxy)methyl)-2-oxabicyclo[2.2.2]octan-1-yl)-1,2,4-oxadiazol-3-yl)benzoic acid] | 960 nM |
| O=C(O)c1ccc(-c2noc(C34CCC(COCc5c(-c6c(Cl)cccc6Cl)noc5C5CC5)(CC3)CO4)n2)cc1 [Example 211] | 980 nM |
| O=C(O)c1ccc(-c2noc(C34CCC(OCc5c(-c6ccccc6OC(F)(F)F)noc5C5CC5)(CC3)CO4)n2)cc1 [Example 212] | 1000 nM |
| O=C(O)c1cccc(-c2noc(C34CCC(COCc5c(-c6ccccc6OC(F)(F)F)noc5C5CC5)(CC3)CO4)n2)c1 [Example 213] | 1200 nM |
| O=C(O)c1csc(C23CCC(COCc4c(-c5ccccc5OC(F)(F)F)noc4C4CC4)(CC2)CO3)n1 [Example 214] | 1400 nM |
| CS(=O)(=O)NC(=O)c1cccc(C23CCC(COCc4c(-c5c(Cl)cccc5Cl)noc4C4CC4)(CC2)CO3)c1 [Example 215] | 1600 nM |
| O=C(O)c1csc(C23CCC(COCc4c(-c5c(Cl)cccc5Cl)noc4C4CC4)(CC2)CO3)n1 [Example 216] | 2000 nM |
| O=C(O)c1ccc(-c2noc(C34CCC(OCc5c(-c6c(Cl)cncc6Cl)noc5C5CC5)(CC3)CO4)n2)cc1 [Example 218] | 160 nM |
| O=C(O)c1cc(F)cc(-c2noc(C34CCC(OCc5c(-c6c(Cl)cccc6Cl)noc5C5CC5)(CC3)CO4)n2)c1 [Example 219, 3-(5-(4-((5-cyclopropyl-3-(2,6-dichlorophenyl)isoxazol-4-yl)methoxy)-2-oxabicyclo[2.2.2]octan-1-yl)-1,2,4-oxadiazol-3-yl)-5-fluorobenzoic acid] | 300 nM |
| Clc1cccc(Cl)c1-c1noc(C2CC2)c1COCC12CCC(c3cccc(-c4nnn[nH]4)c3)(CC1)OC2 [Example 220, 4-(((1-(3-(1H-tetrazol-5-yl)phenyl)-2-oxabicyclo[2.2.2]octan-4-yl)methoxy)methyl)-5-cyclopropyl-3-(2,6-dichlorophenyl)isoxazole] | 870 nM |
| O=C(O)c1cccc(-c2noc(C34CCC(OCc5c(-c6c(Cl)cccc6Cl)noc5C5CC5)(CC3)C4)n2)c1 [Example 221, 3-(5-((1r,4r)-4-((5-cyclopropyl-3-(2,6-dichlorophenyl)isoxazol-4-yl)methoxy)bicyclo[2.2.1]heptan-1-yl)-1,2,4-oxadiazol-3-yl)benzoic acid] | 300 nM |
| O=C(O)c1ccc(-c2noc(C34CCC(C=Cc5c(-c6c(Cl)cccc6Cl)noc5C5CC5)(CC3)C4)n2)cc1 [Example 226, 4-(5-(4-(2-(5-cyclopropyl-3-(2,6-dichlorophenyl)isoxazol-4-yl)vinyl)bicyclo[2.2.1]heptan-1-yl)-1,2,4-oxadiazol-3-yl)benzoic acid] | 420 nM |
| COC(=O)c1cccc(NC(=O)C23CCC(C=Cc4c(-c5c(Cl)cccc5Cl)noc4C4CC4)(CC2)C3)c1 [Example 229] | 3600 nM |
| O=C(O)c1cccc(NC(=O)C23CCC(C=Cc4c(-c5c(Cl)cccc5Cl)noc4C4CC4)(CC2)C3)c1 [Example 230] | 890 nM |
| O=C(O)c1cc(F)c2nc(C34CCC(OCc5c(-c6c(Cl)cncc6Cl)noc5C5CC5)(CC3)CC4)sc2c1 [Example 231, 2-(4-((5-cyclopropyl-3-(3,5-dichloropyridin-4-yl)isoxazol-4-yl)methoxy)bicyclo[2.2.2]octan-1-yl)-4-fluorobenzo[d]thiazole-6-carboxylic acid] | 53 nM |
| O=C(O)c1cccc(-c2noc(C34CCC(OCc5c(-c6c(Cl)cncc6Cl)noc5C5CC5)(CC3)CC4)n2)c1 [Example 232, 3-(5-(4-((5-cyclopropyl-3-(3,5-dichloropyridin-4-yl)isoxazol-4-yl)methoxy)bicyclo[2.2.2]octan-1-yl)-1,2,4-oxadiazol-3-yl)benzoic acid] | 100 nM |
| O=C(O)c1cc(-c2noc(C34CCC(OCc5c(-c6c(Cl)cncc6Cl)noc5C5CC5)(CC3)CC4)n2)ccc1F [Example 233, 5-(5-(4-((5-cyclopropyl-3-(3,5-dichloropyridin-4-yl)isoxazol-4-yl)methoxy)bicyclo[2.2.2]octan-1-yl)-1,2,4-oxadiazol-3-yl)-2-fluorobenzoic acid] | 92 nM |
| COc1ccc(-c2nc(C34CCC(OCc5c(-c6c(Cl)cncc6Cl)noc5C5CC5)(CC3)CC4)no2)cc1C(=O)O [Example 234, 5-(3-(4-((5-cyclopropyl-3-(3,5-dichloropyridin-4-yl)isoxazol-4-yl)methoxy)bicyclo[2.2.2]octan-1-yl)-1,2,4-oxadiazol-5-yl)-2-methoxybenzoic acid] | 190 nM |
| COc1ccc(-c2noc(C34CCC(OCc5c(-c6c(Cl)cncc6Cl)noc5C5CC5)(CC3)CC4)n2)cc1C(=O)NS(C)(=O)=O [Example 236, 5-(5-(4-((5-cyclopropyl-3-(3,5-dichloropyridin-4-yl)isoxazol-4-yl)methoxy)bicyclo[2.2.2]octan-1-yl)-1,2,4-oxadiazol-3-yl)-2-methoxy-N-(methylsulfonyl)benzamide] | 26 nM |
| COc1c(C(=O)O)cccc1-c1noc(C23CCC(OCc4c(-c5c(Cl)cncc5Cl)noc4C4CC4)(CC2)CC3)n1 [Example 237, 3-(5-(4-((5-cyclopropyl-3-(3,5-dichloropyridin-4-yl)isoxazol-4-yl)methoxy)bicyclo[2.2.2]octan-1-yl)-1,2,4-oxadiazol-3-yl)-2-methoxybenzoic acid] | 27 nM |

Now from value to molecule:

| EC50 | Structure (SMILES) |
| --- | --- |
| 25 nM | O=C(O)c1cc(-c2noc(C34CCC(OCc5c(-c6c(Cl)cncc6Cl)noc5C5CC5)(CC3)CC4)n2)cc(C(F)(F)F)c1 [Example 235, 3-(5-(4-((5-cyclopropyl-3-(3,5-dichloropyridin-4-yl)isoxazol-4-yl)methoxy)bicyclo[2.2.2]octan-1-yl)-1,2,4-oxadiazol-3-yl)-5-(trifluoromethyl)benzoic acid] |
| 21 nM | COc1c(F)cc(-c2noc(C34CCC(OCc5c(-c6c(Cl)cncc6Cl)noc5C5CC5)(CC3)CC4)n2)cc1C(=O)O [Example 238, 5-(5-(4-((5-cyclopropyl-3-(3,5-dichloropyridin-4-yl)isoxazol-4-yl)methoxy)bicyclo[2.2.2]octan-1-yl)-1,2,4-oxadiazol-3-yl)-3-fluoro-2-methoxybenzoic acid] |
| 79 nM | COc1cc(C(=O)O)cc(-c2noc(C34CCC(OCc5c(-c6c(Cl)cncc6Cl)noc5C5CC5)(CC3)CC4)n2)c1 [Example 239, 3-(5-(4-((5-cyclopropyl-3-(3,5-dichloropyridin-4-yl)isoxazol-4-yl)methoxy)bicyclo[2.2.2]octan-1-yl)-1,2,4-oxadiazol-3-yl)-5-methoxybenzoic acid] |
| 170 nM | COc1ccc(-c2noc(C34CCC(OCc5c(-c6c(Cl)cncc6Cl)noc5C5CC5)(CC3)CC4)n2)cc1C(N)=O [Example 240, 5-(5-(4-((5-cyclopropyl-3-(3,5-dichloropyridin-4-yl)isoxazol-4-yl)methoxy)bicyclo[2.2.2]octan-1-yl)-1,2,4-oxadiazol-3-yl)-2-methoxybenzamide] |
| 130 nM | COc1cc(-c2noc(C34CCC(OCc5c(-c6c(Cl)cncc6Cl)noc5C5CC5)(CC3)CC4)n2)cc(C(=O)O)c1F [Example 241, 5-(5-(4-((5-cyclopropyl-3-(3,5-dichloropyridin-4-yl)isoxazol-4-yl)methoxy)bicyclo[2.2.2]octan-1-yl)-1,2,4-oxadiazol-3-yl)-2-fluoro-3-methoxybenzoic acid] |
| 1400 nM | Oc1ccc(-c2noc(C34CCC(OCc5c(-c6c(Cl)cncc6Cl)noc5C5CC5)(CC3)CC4)n2)cc1-c1nnn[nH]1 [Example 242, 4-(5-(4-((5-cyclopropyl-3-(3,5-dichloropyridin-4-yl)isoxazol-4-yl)methoxy)bicyclo[2.2.2]octan-1-yl)-1,2,4-oxadiazol-3-yl)-2-(1H-tetrazol-5-yl)phenol] |
| 120 nM | COc1cc(-c2noc(C34CCC(OCc5c(-c6c(Cl)cncc6Cl)noc5C5CC5)(CC3)CC4)n2)cc(C(=O)O)c1OC [Example 243, 5-(5-(4-((5-cyclopropyl-3-(3,5-dichloropyridin-4-yl)isoxazol-4-yl)methoxy)bicyclo[2.2.2]octan-1-yl)-1,2,4-oxadiazol-3-yl)-2,3-dimethoxybenzoic acid] |
| 230 nM | COc1cc(C(=O)O)c(F)c(-c2noc(C34CCC(OCc5c(-c6c(Cl)cncc6Cl)noc5C5CC5)(CC3)CC4)n2)c1 [Example 244, 3-(5-(4-((5-cyclopropyl-3-(3,5-dichloropyridin-4-yl)isoxazol-4-yl)methoxy)bicyclo[2.2.2]octan-1-yl)-1,2,4-oxadiazol-3-yl)-2-fluoro-5-methoxybenzoic acid] |
| 46 nM | COc1c(C(=O)O)cc(F)cc1-c1noc(C23CCC(OCc4c(-c5c(Cl)cncc5Cl)noc4C4CC4)(CC2)CC3)n1 [Example 245, 3-(5-(4-((5-cyclopropyl-3-(3,5-dichloropyridin-4-yl)isoxazol-4-yl)methoxy)bicyclo[2.2.2]octan-1-yl)-1,2,4-oxadiazol-3-yl)-5-fluoro-2-methoxybenzoic acid] |
| 90 nM | COc1cc(C(=O)O)c(OC)c(-c2noc(C34CCC(OCc5c(-c6c(Cl)cncc6Cl)noc5C5CC5)(CC3)CC4)n2)c1 [Example 246, 3-(5-(4-((5-cyclopropyl-3-(3,5-dichloropyridin-4-yl)isoxazol-4-yl)methoxy)bicyclo[2.2.2]octan-1-yl)-1,2,4-oxadiazol-3-yl)-2,5-dimethoxybenzoic acid] |
